System: fibula fracture region
Test: Acceleration of fracture healing in normal rats, Compound (2) microspheres (Experimental Example 2)
Assay type: in vivo, rat
Settings: Example 7 microspheres; for Fibula Bone Mineral Content / Fibula Bone Volume / Fibula Bone Mineral Density: 2 weeks after suturing; for Fibula Bone Mineral Density: DXA at fracture region; for Breaking Energy: 4 weeks after suturing, three-point bending test
Method: CD (SD) IGS rats (Charles River Japan, Inc.; male; 7-week-old) were housed for seven days at room temperature (23±2° C.) and 50±20% humidity. During the housing period, the rats were free to access commercially available food (from Oriental Bio; CE-2).
Under ether anesthesia, the left-lower legs of rats were shaved and sterilized with 70% aqueous ethanol; fibulas were exposed with scissors and cut with nail scissors (Natsume Seisakusyo; B17). The cut sections of the fibula were re-matched with tweezers. For the test groups (15 rats/group), the drug-containing microspheres prepared in Example 7, which contains 0.004, 0.02, 0.1 or 0.5 mg of Compound (2), were placed around the cutting site using spatula followed by suturing with silk thread. For the control group (15 rats/group), the same amount of drug-free microspheres prepared in Control Example 2 were placed around the cutting site using spatula followed by suturing with silk thread. Following the suturing, every animal was sterilized with 70% aqueous ethanol. Five rats at two weeks later and 10 rats at four weeks later were taken from each group and sacrificed by laparotomy with bleeding under ether anesthesia and the fibulas were excised.
The fibula excised at 2 weeks after suturing was subjected to DXA bone densitometer (from Aloka; DCS-600) to determine bone mineral density and bone mineral content at fracture region (scanning width: 1 mm).
The volume of fibula excised at 2 weeks after suturing was determined using Plethysmometer (Muromachi Kikai Co., Ltd.; TK-101).
The fibula excised at 4 weeks after suturing was subjected to a three-point bending test with bone strength tester (from Muromachi Kikai Co., Ltd.; TK-252C) to determine bone strength. Briefly, the fibula was supported by two supports apart from each other by 8 mm and the cut section was positioned at the middle of these supports, i.e., 4 mm apart from the respective two supports. Loading (3 mm/minute) from upper direction was kept on the middle point (fracture section) of fibula until fibula begins to fracture. The breaking force […] spent to break the bone was defined as the breaking energy.

With `CCOc1cc2cc(CO)c(CO)c(-c3ccnc(-n4nc(-c5cccnc5)c5ccccc5c4=O)c3)c2cc1OCC` [Compound (2)] as the compound, how does the “Fibula Bone Mineral Content” value (drug content 0.004 mg) read?
Its value is 15.90 ± 1.88 mg.

And the “Fibula Bone Volume” value (drug content 0.004 mg)?
The value was 85.0 ± 8.14 µL.

What about the “Fibula Bone Mineral Density” value (drug content 0.004 mg) of the same compound?
The value was 46.18 ± 3.18 mg/cm^2.

And the “Breaking Energy” value (drug content 0.004 mg)?
Its value is 2.66 ± 0.49 mJ.

What about the “Fibula Bone Mineral Content” value (drug content 0.02 mg) of the same compound?
The value was 19.86 ± 1.75 mg.

And the “Fibula Bone Volume” value (drug content 0.02 mg)?
Its value is 97.6 ± 4.99 µL.

What about the “Fibula Bone Mineral Density” value (drug content 0.02 mg) of the same compound?
The value was 50.72 ± 2.68 mg/cm^2.

What about the “Breaking Energy” value (drug content 0.02 mg) of the same compound?
Its value is 2.59 ± 0.55 mJ.

What about the “Fibula Bone Mineral Content” value (drug content 0.1 mg) of the same compound?
Its value is 23.10 ± 2.72 mg.

What about the “Fibula Bone Volume” value (drug content 0.1 mg) of the same compound?
Its value is 121.6 ± 13.76 µL.

What about the “Fibula Bone Mineral Density” value (drug content 0.1 mg) of the same compound?
Its value is 56.06 ± 4.19 mg/cm^2.

What about the “Breaking Energy” value (drug content 0.1 mg) of the same compound?
The value was 3.15 ± 0.54 mJ.

What about the “Fibula Bone Mineral Content” value (drug content 0.5 mg) of the same compound?
The value was 23.24 ± 2.97 mg.

And the “Fibula Bone Volume” value (drug content 0.5 mg)?
The value was 132.2 ± 11.72 µL.

What about the “Fibula Bone Mineral Density” value (drug content 0.5 mg) of the same compound?
Its value is 52.18 ± 4.36 mg/cm^2.

What about the “Breaking Energy” value (drug content 0.5 mg) of the same compound?
The value was 3.27 ± 0.61 mJ.

From patent US7659273B2, “Composition for accelerating bone fracture healing” (Mitsubishi Tanabe Pharma Corporation, priority 2001, dated 2010)
